The results in this text go back to patent US11041181B2, “Promoter and method for producing purine nucleotide using the same” (CJ CHEILJEDANG CORPORATION, priority 2019, dated 2021).

In experiment [1] the test system is CJI2332. The format is cell-based, Corynebacterium stationis. On the procedure:
(§1) To prepare an IMP-producing strain derived from the ATCC6872 strain, the culture of ATCC6872 was suspended in a phosphate buffer (pH 7.0) or citrate buffer (pH 5.5) at a density of 10^7 cells/mL to 10^8 cells/mL and treated with UV at room temperature or 32° C. for 20 min to 40 min to induce a mutation. The strain was washed with a 0.85% saline solution twice and spread, after dilution, on a minimal medium containing 1.7% agar which was supplemented with a resistance-providing material at an appropriate concentration, and thereby colonies were obtained. Each colony was cultured in a nutrient medium and then cultured in a seed culture medium for 24 hours. […] To prepare a strain producing IMP at high concentration, adenine-auxotroph, guanine-leaky type, lysozyme sensitivity, 3,4-dehydroproline resistance, streptomycin resistance, sulfaguanidine resistance, norvaline resistance, and trimethoprim resistance were provided by performing the corresponding procedures in a sequential manner. As a result, the CJI2332 strain provided with resistance to the above materials and having excellent IMP productivity was finally selected.
(§2) Minimal medium: 2% glucose, 0.3% sodium sulfate, 0.1% monopotassium phosphate, 0.3% dipotassium phosphate, 0.3% magnesium sulfate, 10 mg/L calcium chloride, 10 mg/L iron sulfate, 1 mg/L zinc sulfate, 3.6 mg/L manganese chloride, 20 mg/L L-cysteine, 10 mg/L calcium pantothenate, 5 mg/L thiamine hydrochloride, 30 μg/L biotin, 20 mg/L adenine, 20 mg/L guanine, adjusted to pH 7.3.

Experiment [2] relates to ATCC6872. The experiment can be described thus: Resistance/sensitivity characteristics of strain on minimal medium with resistance-providing material. It is filed as cell-based, Corynebacterium stationis. As to the method: as §1, §2

`[H]/N=C(/N)NS(=O)(=O)c1ccc(N)cc1` [Sulfaguanidine]: the resistance turned out to be 200 µg/mL in experiment [1] and 50 µg/mL in experiment [2].
As for `CCC[C@H](N)C(=O)O` [Norvaline], the Norvaline resistance in experiment [1] came to 2 mg/mL; in experiment [2], 0.2 mg/mL.
For Lysozyme, the Lysozyme sensitivity in experiment [1] is 8 µg/mL; in experiment [2], 80 µg/mL.
On to `O=C(O)C1C=CCN1` (stereo not drawn) [3,4-Dehydroproline], for which the resistance is on record as 3,500 μg/mL in experiment [1] and 1,000 μg/mL in experiment [2].
For `COc1cc(Cc2cnc(N)nc2N)cc(OC)c1OC` [Trimethoprim], the resistance in experiment [1] was found to be 100 µg/mL; in experiment [2], 20 µg/mL.
The like results for `[H]/N=C(/N)N[C@H]1[C@H](O)[C@@H](O)[C@H](O[C@@H]2O[C@@H](C)[C@](O)(C=O)[C@H]2O[C@@H]2O[C@@H](CO)[C@H](O)[C@@H](O)[C@@H]2NC)[C@@H](N/C(N)=N\[H])[C@@H]1O` [Streptomycin] were, in that order, 2,000 μg/mL and 500 µg/mL.
